# Assay results taken from PubChem BioAssay AID1918953 (Molecular Pharmacology Branch, DTP, NCI, 2023).
# Values joined by “and” are separate entries in the source; they are usually repeats but may differ in a detail not shown here. Equal entries are not always repeated.
# Test system: MDA-MB-231 complex spheroid viability
# Assay: Anticancer human tumor MDA-MB-231/ATCC cell line growth inhibition;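 also: drug exposure lasted 7 days starting on day 3 of spheroid growth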
# Conditions: for viability, T/C: stronger effect = lower value
# From the text: Multicellular complex tumor spheroid response to LSD1 Inhibitor Iadademstat in combination with a variety of drugs and investigational agents in selected tumor cell lines
# The current study was undertaken to assess response to LSD1 inhibitors in combination with standard-of-care drugs and investigational agents in solid tumor complex spheroid models as well as in the K-562 leukemia. Complex spheroids include a stromal component modeled by human endothelial cells (HUVEC) and fibroblasts modeled by human mesenchymal stem cells (MSCs). The concentration ranges selected for each drug and investigational agent were based upon clinically achievable concentrations if the clinical Cmax of the agent was known.
# Compounds. The drugs and investigational agents used in this study are listed on Table 1. All of the agents used, including staurosporine (NSC755774) and gemcitabine (NSC613327), were obtained from the Developmental Therapeutics Program, NCI. FDA-approved anticancer drugs are available from the NCI at http://dtp.nci.nih.gov/branches/dscb/oncology_drugset_explanation.html. Drugs and investigational agents were >95% pure by proton nuclear magnetic resonance (NMR) and liquid chromatography/mass spectrometry (LC/MS). Stock solutions were prepared at 400x in DMSO, stored at -70 degrees C, and diluted in fresh medium prior to their use. The final concentration of DMSO in cell culture wells never exceeded 0.25% (v/v). The FDA-approved anticancer drug set is available from the Developmental Therapeutics Program at https://dtp.cancer.gov/organization/dscb/obtaining/available_plates.htm. All drugs and investigational agents were tested over a range starting from a high concentration at or near the clinical Cmax and decreasing in half-log increments. If the clinical Cmax for an agent had not been determined, the highest concentration tested was 10 microM.
# Cell Lines. The patient-derived cancer cell (PDC) lines: 292921-168-R-J2-PDC, K24384-001-R-PDC, and 521955-158-R2-J5-PDC pancreatic carcinomas, 556581-035-R-J1 ovarian carcinoma, 324938-238-R-J1-PDC, 855422-203-R-J1-PDC and 883617-216-R-J1-PDC urothelial bladder carcinomas, 743489-274-T-PDC renal cell carcinoma, 138582-R-J1 Merkel cell tumor, K60290-347-R-J1 and K57222-313-R-J1-PDC glioblastomas, 653999-131-R-J2-PDC, LG0703-F948-PDC, and 349418-098-R-PDC non-small cell lung carcinomas, 885512-296-R-J2-PDC, 171881-019-R-J1-PDC breast carcinomas and 186277-243-T-J2-PDC and 233499-124-R-J2-PDC colon carcinomas were obtained from the NCI Patient-Derived Models Repository (PDMR, https://pdmr.cancer.gov). The established cell lines NCI/ADR-RES (RRID:CVCL_14520 and OVCAR-5 (RRID:CVCL_1628) ovarian carcinomas, 786-O (RRID:CVCL_1051) and A498 (RRID:CVCL_A498) renal cell carcinoma, NCI-H211 (ATCC, cat. CRL-5824; RRID:CVCL_1529), NCI-H196 (ATCC, cat. CRL-5823, RRID:CVCL_1509), SW 1271 (ATCC, cat. CRL-2177, RRID:CVCL_1716) and NCI-H1876 (ATCC, cat. CRL-5902, RRID:CVCL_1503) small cell lung carcinomas, MDA-MB-231 (RRID:CVCL_0062) and MDA-MB-468 (RRID:CVCL_0419)breast carcinomas (10-12). Pooled donor human umbilical vein endothelial cells (HUVEC, Lonza, cat. CC-2519) and human mesenchymal stem cells (hMSC, Lonza, cat. PT-2501) were purchased from Lonza (Walkersville, MD).
# Cell Culture. All cells were maintained in an incubator at 37 degrees C and 5% CO2 with 95% humidity. The PDC lines were cultured according to standard operating procedures established by the NCI PDMR (https://pdmr.cancer.gov). Briefly all PDCs were thawed and cultured in Matrigel-coated flasks prepared with a working solution of 1X Ham's F-12 nutrient mix, without supplementation (Invitrogen, Waltham, MA, cat. 11765054), 100 U/mL penicillin-streptomycin (Invitrogen, cat. 15140122), and 2.5% Matrigel (Corning Inc., Corning, NY, cat. 354248) for the first three passages. […]
# [1] = curve of first compound, second compound 0.1 µM
# [2] = curve of first compound, second compound 0.316 µM
# [3] = curve of first compound, second compound 1 µM
# [4] = curve of first compound, second compound 3.16 µM
# [5] = curve of first compound, second compound 10 µM
# [6] = second compound 0.1 µM, first compound 0.000316 µM
# [7] = second compound 0.1 µM, first compound 0.001 µM
# [8] = second compound 0.1 µM, first compound 0.00316 µM
# [9] = second compound 0.1 µM, first compound 0.01 µM
# [10] = second compound 0.1 µM, first compound 0.0316 µM
# [11] = second compound 0.1 µM, first compound 0.1 µM
# [12] = second compound 0.316 µM, first compound 0.000316 µM
# [13] = second compound 0.316 µM, first compound 0.001 µM
# [14] = second compound 0.316 µM, first compound 0.00316 µM
# [15] = second compound 0.316 µM, first compound 0.01 µM
# [16] = second compound 0.316 µM, first compound 0.0316 µM
# [17] = second compound 0.316 µM, first compound 0.1 µM
# [18] = second compound 1 µM, first compound 0.000316 µM
# [19] = second compound 1 µM, first compound 0.001 µM
# [20] = second compound 1 µM, first compound 0.00316 µM
# [21] = second compound 1 µM, first compound 0.01 µM
# [22] = second compound 1 µM, first compound 0.0316 µM
# [23] = second compound 1 µM, first compound 0.1 µM
# [24] = second compound 3.16 µM, first compound 0.000316 µM
# [25] = second compound 3.16 µM, first compound 0.001 µM
# [26] = second compound 3.16 µM, first compound 0.00316 µM
# [27] = second compound 3.16 µM, first compound 0.01 µM
# [28] = second compound 3.16 µM, first compound 0.0316 µM
# [29] = second compound 3.16 µM, first compound 0.1 µM
# [30] = second compound 10 µM, first compound 0.000316 µM
# [31] = second compound 10 µM, first compound 0.001 µM
# [32] = second compound 10 µM, first compound 0.00316 µM
# [33] = second compound 10 µM, first compound 0.01 µM
# [34] = second compound 10 µM, first compound 0.0316 µM
# [35] = second compound 10 µM, first compound 0.1 µM
smiles,measurement,setting,value
CC(C)CC(NC(=O)C(Cc1ccccc1)NC(=O)c1cnccn1)B(O)O (centres undefined) + NC1CC1c1ccc(-c2cccc(O)c2)cc1,IC50,[1],< 0.316 nM
same,IC50,[2],< 0.316 nM
same,IC50,[3],< 0.316 nM
same,IC50,[4],< 0.316 nM
same,IC50,[5],< 0.316 nM
same,"viability, T/C",[6],29.9%
same,"viability, T/C",[7],1.88%
same,"viability, T/C",[8],0.68%
same,"viability, T/C",[9],0.5%
same,"viability, T/C",[10],0.85%
same,"viability, T/C",[11],1.08%
same,"viability, T/C",[12],31.8%
same,"viability, T/C",[13],0.28%
same,"viability, T/C",[14],0.07%
same,"viability, T/C",[15],0.06%
same,"viability, T/C",[16],0.07%
same,"viability, T/C",[17],0.14%
same,"viability, T/C",[18],28.9%
same,"viability, T/C",[19],0.45%
same,"viability, T/C",[20],0.11%
same,"viability, T/C",[21],0.08%
same,"viability, T/C",[22],0.09%
same,"viability, T/C",[23],0.15%
same,"viability, T/C",[24],25.6%
same,"viability, T/C",[25],0.41%
same,"viability, T/C",[26],0.12%
same,"viability, T/C",[27],0.15%
same,"viability, T/C",[28],0.07%
same,"viability, T/C",[29],1.91%
same,"viability, T/C",[30],18.3%
same,"viability, T/C",[31],0.24%
same,"viability, T/C",[32],0.13%
same,"viability, T/C",[33],0.11%
same,"viability, T/C",[34],0.12%
same,"viability, T/C",[35],1.1%
COc1ccc([C@@H](O)c2cc(-c3ncnc4cc(N5CCOCC5)ccc34)c(F)cc2Cl)nn1,"viability, T/C",compound 0.0316 µM,93.7% and 82%
same,"viability, T/C",compound 0.1 µM,76.6% and 85.5%
same,"viability, T/C",compound 0.316 µM,53.9% and 64.1%
same,"viability, T/C",compound 1 µM,39.6% and 43.1%
same,"viability, T/C",compound 3.16 µM,27.3% and 22.8%
same,"viability, T/C",compound 10 µM,23.2% and 13.2%
same,IC50,curve of compound,449 nM and 700 nM
CC[C@@]1(O)C(=O)OCc2c1cc1n(c2=O)Cc2cc3c(CN(C)C)c(O)ccc3nc2-1,"viability, T/C",compound 0.000316 µM,89.7% and 88.6%
same,"viability, T/C",compound 0.001 µM,64.9% and 65.5%
same,"viability, T/C",compound 0.00316 µM,39.1% and 39.5%
same,"viability, T/C",compound 0.01 µM,25.3% and 25.9%
same,"viability, T/C",compound 0.0316 µM,17.1% and 22.8%
same,"viability, T/C",compound 0.1 µM,10.3% and 16%
same,IC50,curve of compound,1.99 nM and 2.01 nM
NS(=O)(=O)OCC1CC(n2ccc3c(NC4CCc5ccccc54)ncnc32)CC1O (centres undefined) + NC1CCC(NC2CC2c2ccccc2)CC1,IC50,[1],285 nM
same,IC50,[2],280 nM
same,IC50,[3],244 nM
same,IC50,[4],169 nM
same,IC50,[5],48.6 nM
same,"viability, T/C","second compound 0.1 µM, first compound 0.00949 µM",136%
same,"viability, T/C","second compound 0.1 µM, first compound 0.03 µM",117%
same,"viability, T/C","second compound 0.1 µM, first compound 0.0949 µM",78.1%
same,"viability, T/C","second compound 0.1 µM, first compound 0.3 µM",46.6%
same,"viability, T/C","second compound 0.1 µM, first compound 0.949 µM",42.7%
same,"viability, T/C","second compound 0.1 µM, first compound 3 µM",39.7%
same,"viability, T/C","second compound 0.316 µM, first compound 0.00949 µM",135%
same,"viability, T/C","second compound 0.316 µM, first compound 0.03 µM",116%
same,"viability, T/C","second compound 0.316 µM, first compound 0.0949 µM",77%
same,"viability, T/C","second compound 0.316 µM, first compound 0.3 µM",47.6%
same,"viability, T/C","second compound 0.316 µM, first compound 0.949 µM",40.3%
same,"viability, T/C","second compound 0.316 µM, first compound 3 µM",38.7%
same,"viability, T/C","second compound 1 µM, first compound 0.00949 µM",124%
same,"viability, T/C","second compound 1 µM, first compound 0.03 µM",107%
same,"viability, T/C","second compound 1 µM, first compound 0.0949 µM",73.4%
same,"viability, T/C","second compound 1 µM, first compound 0.3 µM",42.2%
same,"viability, T/C","second compound 1 µM, first compound 0.949 µM",40.6%
same,"viability, T/C","second compound 1 µM, first compound 3 µM",36.8%
same,"viability, T/C","second compound 3.16 µM, first compound 0.00949 µM",100%
same,"viability, T/C","second compound 3.16 µM, first compound 0.03 µM",87.2%
same,"viability, T/C","second compound 3.16 µM, first compound 0.0949 µM",59.7%
same,"viability, T/C","second compound 3.16 µM, first compound 0.3 µM",40.2%
same,"viability, T/C","second compound 3.16 µM, first compound 0.949 µM",33.4%
same,"viability, T/C","second compound 3.16 µM, first compound 3 µM",31.3%
same,"viability, T/C","second compound 10 µM, first compound 0.00949 µM",69.7%
same,"viability, T/C","second compound 10 µM, first compound 0.03 µM",56.8%
same,"viability, T/C","second compound 10 µM, first compound 0.0949 µM",40.4%
same,"viability, T/C","second compound 10 µM, first compound 0.3 µM",32.7%
same,"viability, T/C","second compound 10 µM, first compound 0.949 µM",28.1%
same,"viability, T/C","second compound 10 µM, first compound 3 µM",28.8%
Cn1ncnc1C1c2n[nH]c(=O)c3cc(F)cc(c23)NC1c1ccc(F)cc1 (centres undefined) + NC1CC1c1ccc(-c2cccc(O)c2)cc1,IC50,[1],> 100 nM
same,IC50,[2],49 nM
same,IC50,[3],48.1 nM
same,IC50,[4],51.5 nM
same,IC50,[5],0.479 nM
same,"viability, T/C",[6],86.3%
same,"viability, T/C",[7],87.6%
same,"viability, T/C",[8],74.2%
same,"viability, T/C",[9],77%
same,"viability, T/C",[10],62.4%
same,"viability, T/C",[11],60.4%
same,"viability, T/C",[12],64.4%
same,"viability, T/C",[13],61%
same,"viability, T/C",[14],60.6%
same,"viability, T/C",[15],57.1%
same,"viability, T/C",[16],56.2%
same,"viability, T/C",[17],42.7%
same,"viability, T/C",[18],62.4%
same,"viability, T/C",[19],61.5%
same,"viability, T/C",[20],57.2%
same,"viability, T/C",[21],51.2%
same,"viability, T/C",[22],53.5%
same,"viability, T/C",[23],47.4%
same,"viability, T/C",[24],66.6%
same,"viability, T/C",[25],69.4%
same,"viability, T/C",[26],67.4%
same,"viability, T/C",[27],55.3%
same,"viability, T/C",[28],49.2%
same,"viability, T/C",[29],48.7%
same,"viability, T/C",[30],51.9%
same,"viability, T/C",[31],46.5%
same,"viability, T/C",[32],43%
same,"viability, T/C",[33],42.5%
same,"viability, T/C",[34],33.1%
same,"viability, T/C",[35],32.2%
